Test results from patent publication US9126945B2, “N-(3-carbamoylphenly)-1H-pyrazole-5-carboxamide derivatives and the use thereof for controlling animal pests” (BAYER INTELLECTUAL PROPERTY GMBH, priority 2011, dated 2015).

Legend:
[1] = tested on: Musca domestica; experiment: Musca domestica test (MUSCDO); type: in vivo; conditions: 100 ppm; after 2 days
Protocol: Musca domestica Test (MUSCDO)
(§1) Solvent: dimethyl sulphoxide
Vessels containing a sponge treated with the active compound preparation of the desired concentration are populated with adult Musca domestica.
(§2) After 2 days, the kill in % is determined.
Vessels containing a sponge treated with the active compound formulation of the desired concentration are populated with adult Musca domestica.
After the desired period of time, the kill in % is determined.

[2] = tested on: Ctenocephalides felis; experiment: Ctenocephalides felis oral (CTECFE); type: in vivo; conditions: for kill in % (effect): 100 ppm, after 2 days; for inhibition at 0.8 ppm: Ctenocephalides felis, po, 48 h, CTECFE, 2 dat
Protocol: Ctenocephalides felis Oral (CTECFE)
Solvent: 1 part by weight of dimethyl sulphoxide
For the purpose of producing a suitable preparation of active compound, 10 mg of active compound are mixed with 0.5 ml of dimethyl sulphoxide. A portion of the concentrate is diluted with citrated cattle blood, and the desired concentration is prepared.
About 20 unfed adult fleas (Ctenocephalides felis) are placed into a chamber which is closed at the top and bottom with gauze. A metal cylinder whose bottom end is closed with parafilm is placed onto the chamber. The cylinder contains the blood/active compound preparation, which can be taken up by the fleas through the parafilm membrane. After 2 days, the kill in % is determined.
For the purpose of preparing an appropriate active compound formulation, 10 mg of active compound are mixed with 0.5 ml of dimethyl sulphoxide. A portion of the concentrate is diluted with citrated cattle blood, and the desired concentration is prepared.
About 20 unfed adult fleas (Ctenocephalides felis) are placed into a chamber which is closed at the top and bottom with gauze. A metal cylinder whose bottom end is closed with parafilm is placed onto the chamber. The cylinder contains the blood/active compound preparation, which can be taken up by the fleas through the parafilm membrane.

[3] = tested on: Phaedon cochleariae; experiment: Phaedon test (PHAECO spray treatment), Chinese cabbage leaf discs; conditions: for efficacy in %: application rate 500 g/ha, after 7 days
[4] = tested on: Tetranychus urticae; experiment: Tetranychus test, OP-resistant (TETRUR spray treatment), bean leaf discs; type: in vivo; conditions: for efficacy in %: application rate 500 g/ha, after 6 days
Protocol: Tetranychus Test, OP-Resistant (TETRUR Spray Treatment)
After a time of 6 days, the efficacy in % is determined.

[5] = tested on: Phaedon cochleariae; experiment: Phaedon cochleariae spray test (PHAECO), cabbage leaves, ppm; type: in vivo; conditions: 168 h, 7 dat
From the text: Phaedon cochleariae Spray Test (PHAECO)
(§3) Solvent: 7 parts by weight of dimethylformamide
(§4) Emulsifier: 2 parts by weight of alkylaryl polyglycol ether
(§5) If the addition of ammonium salts or/and penetrants is required, these are in each case added in a concentration of 1000 ppm to the solution of the preparation.

[6] = tested on: Nilaparvata lugens; experiment: Nilaparvata lugens spray test (NILALU); type: in vivo
From the text: Nilaparvata lugens Spray Test (NILALU)
as §5

[7] = tested on: Boophilus microplus; experiment: Boophilus microplus test (BOOPMI injection); type: in vivo; conditions: for efficacy in % (laying of fertile eggs): 20 μg/animal, after 7 days; for % Activity dat: BOOPMI injection, 0.032 μg/animal, 7 dat
Protocol: Boophilus microplus Test (BOOPMI Injection)
as §1
The active compound solution is injected into the abdomen (Boophilus microplus), and the animals are transferred into dishes and stored in a climate-controlled room. The activity is assessed by laying of fertile eggs.
The active compound solution is injected into the abdomen (Boophilus microplus), and the animals are transferred into dishes and stored in a climate-controlled room.
The activity is assessed by laying of fertile eggs. 100% means that none of the ticks has laid any fertile eggs.

[8] = tested on: Myzus persicae; experiment: Myzus test (MYZUPE spray treatment); type: in vivo; conditions: for inhibition at 20 g/ha / inhibition at 100 g/ha: Myzus persicae, 144 h; for efficacy in %: application rate 500 g/ha, after 6 days
Protocol: Myzus test (Myzupe spray treatment)
After 6 days, the efficacy in % is determined.
Myzus Test (MYZUPE Spray Treatment)

[9] = tested on: Boophilus microplus females of the SP-resistant Parkhurst strain; experiment: Boophilus microplus test (DIP); type: in vivo; conditions: for efficacy in % (laying of fertile eggs): 100 ppm, after 7 days; for inhibition at 20 ppm: Rhipicephalus microplus, 168 h, BOOPMI DIP, 7 dat
Protocol: Boophilus microplus Test (DIP)
Test animals: adult engorged Boophilus microplus females of the SP-resistant Parkhurst strain
as §1
10 mg of active compound are dissolved in 0.5 ml of dimethyl sulphoxide. For the purpose of preparing a suitable formulation, the active compound solution is diluted with water to the concentration desired in each case.
This active compound preparation is pipetted into tubes. 8-10 ticks are transferred into a further tube with holes. The tube is immersed into the active compound formulation, and all ticks are completely wetted. After the liquid has rum off, the ticks are transferred to filter discs in plastic dishes and kept in a climatized room. The activity is assessed after 7 days by laying of fertile eggs. Eggs whose fertility is not outwardly visible are stored in glass tubes in a climate-controlled cabinet until the larvae hatch. An efficacy of 100% means that none of the ticks has laid any fertile eggs.
10 mg of active compound are dissolved in 0.5 ml of dimethyl sulphoxide. For the purpose of preparing a suitable formulation, the active compound solution is diluted with water to the concentration desired in each case (in ppm).
This active compound preparation is pipetted into tubes. 8-10 ticks are transferred into a further tube with holes. The tube is immersed into the active compound formulation, and all ticks are completely wetted. After the liquid has run out, the ticks are transferred onto filter discs in plastic dishes and stored in a climate-controlled room.
The activity is assessed after the desired time by laying of fertile eggs. Eggs whose fertility is not evident from the outside are kept in glass tubes in a climate-controlled cabinet until the larvae have hatched. An effect of 100% means that none of the ticks has laid any fertile eggs.

[10] = tested on: Lucilia cuprina larvae; experiment: Lucilia cuprina test (LUCICU); type: in vivo; conditions: 100 ppm; after 2 days
Protocol: Lucilia cuprina Test (LUCICU)
as §1
Vessels containing horse meat treated with the active compound preparation of the desired concentration are populated with about 20 Lucilia cuprina larvae.
as §2

[11] = tested on: Spodoptera frugiperda; experiment: Spodoptera frugiperda test (SPODFR spray treatment), maize leaf discs; type: in vivo; conditions: for efficacy in %: application rate 500 g/ha, after 7 days
From the text: Spodoptera frugiperda Test (SPODFR Spray Treatment)

[12] = log P by HPLC, EEC Directive 79/831 Annex V.A8, method a); type: physicochemical; conditions: for logP: cell marked a): HPLC
Protocol: (§6) ^a) Note regarding the determination of the log P values and mass detection The determination of the given log P values was carried out in accordance with EEC Directive 79/831 Annex V.A8 by HPLC (High Performance Liquid Chromatography) on a reversed-phase column (C18). Agilent 1100 LC system; 50*4.6 Zorbax Eclipse Plus C18 1.8 micron; mobile phase A: acetonitrile (0.1% formic acid); mobile phase B: water (0.09% formic acid); linear gradient from 10% acetonitrile to 95% acetonitrile in 4.25 min, then 95% acetonitrile for a further 1.25 min; oven temperature 55° C.; flow rate: 2.0 ml/min Mass detection is via an Agilend MSD system.
as §6, with “mass detection:” for “mass detection”, “2.0 ml/min.” for “2.0 ml/min”

[13] = tested on: Frankliniella occidentalis; experiment: Frankliniella occidentalis spray test (FRANOC); type: in vivo; conditions: 168 h, 20 g/ha, 7 dat
From the text: Frankliniella occidentalis Spray Test (FRANOC)
as §5

[14] = tested on: Heliothis armigera; experiment: Heliothis armigera spray test (HELIAR); type: in vivo; conditions: Helicoverpa armigera, 168 h, 20 ppm, 7 dat
From the text: Heliothis armigera Spray Test (HELIAR)
as §3, §4, §5

[15] = tested on: Spodoptera frugiperda; experiment: Spodoptera frugiperda spray test (SPODFR), cotton leaves, ppm; type: in vivo; conditions: 168 h, 7 dat
From the text: Spodoptera frugiperda Spray Test (SPODFR)
as §3, §4, §5
Cotton leaves (Gossypium hirsutum) are sprayed with an active compound formulation of the desired concentration and populated with caterpillars of the armyworm (Spodoptera frugiperda).

[16] = tested on: Tetranychus urticae; experiment: Tetranychus urticae spray test, OP-resistant (TETRUR), bean plants, ppm; type: in vivo; conditions: 168 h, 4 ppm, 7 dat
From the text: Tetranychus urticae Spray Test, OP-Resistant (TETRUR)
as §3, §4, §5

[17] = tested on: Plutella xylostella; experiment: Plutella xylostella spray test (PLUTMA); type: in vivo; conditions: 168 h, 7 dat
From the text: Plutella xylostella Spray Test (PLUTMA)
as §3, §4, §5

[18] = Tetranychus urticae, foliar, 144 h, TETRUR, 6 dat
[19] = reversed-phase C18, acetonitrile/water with formic acid, gradient 10% to 95% acetonitrile

CCN(C(=O)c1c(C(F)(F)F)c(C(F)(F)C(F)(F)F)nn1C)c1ccc(Cl)c(C(=O)NC2(C#N)CC2)c1 [Example 6]
kill in % (efficacy) [1]: 100% | kill in % (effect) [2]: 100% | inhibition at 0.8 ppm [2]: 80% | efficacy in % [3]: 100% | inhibition at 20 g/ha [4, 18]: 100% | efficacy in % [4]: 100% | inhibition at 0.8 ppm [5]: 100% | inhibition at 20 g/ha ([6]; 168 h, 7 dat): 90% | efficacy in % (laying of fertile eggs) [7]: 100% | % Activity dat [7]: 70% | inhibition at 20 g/ha ([8]; MYZUPE, 6 dat): 70% | efficacy in % [8]: 100% | efficacy in % (laying of fertile eggs) [9]: 100% | inhibition at 20 ppm [9]: 100% | kill in % (efficacy) [10]: 100% | efficacy in % [11]: 100% | chromatographic logP ([12]; reversed-phase C18 HPLC column; cell marked a): HPLC, reversed-phase C18, acetonitrile/water with formic acid, gradient 10% to 95% acetonitrile): 3.36

Cn1nc(C(F)(F)C(F)(F)F)c(C(F)(F)F)c1C(=O)Nc1ccc(Cl)c(C(=O)NC2(C#N)CCC2)c1 [Example 7]
kill in % (efficacy) [1]: 100% | kill in % (effect) [2]: 80% | efficacy in % [3]: 100% | efficacy in % [4]: 100% | efficacy in % (laying of fertile eggs) [7]: 100% | kill in % (efficacy) [10]: 100% | efficacy in % [11]: 83% | logP [12, 19]: 3.55 ^a)

Cn1nc(C(F)(F)F)c(C(F)(F)F)c1C(=O)Nc1ccc(Cl)c(C(=O)NC2(C#N)CC2)c1 [Example 9]
kill in % (effect) [2]: 100% | efficacy in % [3]: 100% | efficacy in % [4]: 100% | efficacy in % (laying of fertile eggs) [7]: 100% | efficacy in % [8]: 90% | efficacy in % (laying of fertile eggs) [9]: 100% | kill in % (efficacy) [10]: 100% | efficacy in % [11]: 100% | logP [12, 19]: 2.85 ^a)

Cn1nc(C(F)(F)C(F)(F)F)c(C(F)(F)F)c1C(=O)Nc1ccc(Br)c(C(=O)NC2(C#N)CC2)c1 [Example 14]
inhibition at 100 g/ha ([4]; Tetranychus urticae, foliar, 144 h, TETRUR, 100 g/ha, 6 dat): 100% | inhibition at 4 ppm ([5]; 4 ppm): 100% | inhibition at 500 g/ha ([6]; 96 h, 4 dat): 80% | % Activity dat ([8]; MYZUPE, 100 g/ha, 6 dat): 100 6 dat 100 6 dat % | inhibition at 100 g/ha ([8]; MYZUPE, 100 g/ha, 6 dat): 100% | chromatographic logP ([12]; reversed-phase HPLC column (C18); cell prints no method mark; Ex. 40 value equals the log P given under method a)): 3.31

Cn1nc(C(F)(F)C(F)(F)F)c(C(F)(F)F)c1C(=O)Nc1ccc(Cl)c(C(=O)NC2CC2)c1 [Ik-1]
inhibition at 20 g/ha [13]: 0% | inhibition at 0.8 ppm [2]: 0% | inhibition at 500 g/ha ([6]; 168 h, 7 dat): 0% | inhibition at 20 ppm [14]: 45% | inhibition at 20 ppm [15]: 20% | inhibition at 4 ppm [16]: 40%

CN(C(=O)c1c(C(F)(F)F)c(C(F)(F)C(F)(F)F)nn1C)c1ccc(Cl)c(C(=O)NC2CC2)c1 [Ik-132, reference compound]
inhibition at 0.8 ppm [2]: 30% | inhibition at 0.8 ppm [5]: 5% | % Activity dat [7]: 0% | inhibition at 100 g/ha ([8]; MYZUPE, 100 g/ha, 6 dat): 0% | inhibition at 20 ppm [15]: 50% | inhibition at 20 ppm [9]: 30% | inhibition at 4 ppm [16]: 30% | inhibition at 20 ppm [17]: 5%

CCN(C(=O)c1c(C(F)(F)F)c(C(F)(F)C(F)(F)F)nn1C)c1ccc(Cl)c(C(=O)NC2CC2)c1 [Ik-136, reference compound]
inhibition at 0.8 ppm [2]: 30% | inhibition at 20 g/ha [4, 18]: 0% | inhibition at 0.8 ppm [5]: 0% | inhibition at 20 g/ha ([6]; 168 h, 7 dat): 0% | % Activity dat [7]: 0% | inhibition at 20 g/ha ([8]; MYZUPE, 6 dat): 0% | inhibition at 20 ppm [9]: 0%

C[C@H]1C[C@H]1NC(=O)c1cc(NC(=O)c2c(C(F)(F)F)c(C(F)(F)C(F)(F)F)nn2C)ccc1Cl [Ik-279, reference compound]
inhibition at 20 g/ha ([3]; Phaedon cochleariae, in Brassica rapa, foliar, 168 h, read-out: % Activity dat): 0% | inhibition at 20 g/ha ([8]; MYZUPE, 6 dat): 0% | inhibition at 4 ppm [16]: 0% | inhibition at 100 g/ha ([11]; Spodoptera frugiperda, foliar, 168 h, SPODFR, 100 g/ha, 7 dat): 50%
